Results published in PubChem BioAssay AID328 (DTP/NCI, 2004).
Values joined by “and” are separate entries in the source; they are usually repeats but may differ in a detail not shown here. Identical values can stand only once. Inconclusive results and toxic doses are left out. The calls were made as follows: active = survival T/C of 150% or more; inactive = T/C below 125% in these data.

Test system: BDF1 mice, P388 leukemia ip, median survival T/C
Assay: NCI In Vivo Anticancer Drug Screen. Data for tumor model P388 Leukemia (intraperitoneal) in B6D2F1 (BDF1) mice
Settings: endpoint: median survival time, higher = longer survival
Method in brief: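 Transplantable tumour in mice; compound vs vehicle dosing; survival scored; ratio of treated to control reported.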

[1] = dose: 100.0 mg/kg/injection, schedule: Q01DX009 (ip), vehicle: saline
[2] = dose: 100.0 mg/kg/injection, schedule: Q04DX003 (ip), vehicle: saline with Tween-80
[3] = dose: 100.0 mg/kg/injection, schedule: Q04DX003 (ip), vehicle: saline
[4] = dose: 200.0 mg/kg/injection, schedule: Q01DX009 (ip), vehicle: saline
[5] = dose: 200.0 mg/kg/injection, schedule: Q04DX003 (ip), vehicle: saline with Tween-80
[6] = dose: 200.0 mg/kg/injection, schedule: Q04DX003 (ip), vehicle: saline
[7] = dose: 400.0 mg/kg/injection, schedule: Q01DX009 (ip), vehicle: saline
[8] = dose: 400.0 mg/kg/injection, schedule: Q04DX003 (ip), vehicle: saline with Tween-80
[9] = dose: 400.0 mg/kg/injection, schedule: Q04DX003 (ip), vehicle: saline
[10] = dose: 50.0 mg/kg/injection, schedule: Q01DX009 (ip), vehicle: saline with Tween-80
[11] = dose: 100.0 mg/kg/injection, schedule: Q01DX009 (ip), vehicle: saline with Tween-80
[12] = dose: 200.0 mg/kg/injection, schedule: Q01DX009 (ip), vehicle: saline with Tween-80
[13] = dose: 400.0 mg/kg/injection, schedule: Q01DX009 (ip), vehicle: saline with Tween-80
[14] = dose: 50.0 mg/kg/injection, schedule: Q01DX009 (ip), vehicle: saline
[15] = dose: 12.5 mg/kg/injection, schedule: Q01DX009 (ip), vehicle: saline with Tween-80
[16] = dose: 25.0 mg/kg/injection, schedule: Q01DX009 (ip), vehicle: saline with Tween-80

Measured: T/C

O=S(=O)(O)C1(O)CCCCC1
inactive: [1] 105 % of control | [2] 95 % of control | [3] 109 % of control | [4] 100 % of control | [5] 104 % of control | [6] 104 % of control | [7] 105 % of control | [8] 100 % of control | [9] 100 % of control

Nc1nc(N)c2cc(NCc3ccccc3Cl)ccc2n1
inactive: dose: 2.34 mg/kg/injection, schedule: Q04DX003 (ip), vehicle: Klucel (hydroxypropylcellulose) (HPC) 104 % of control | dose: 4.68 mg/kg/injection, schedule: Q04DX003 (ip), vehicle: Klucel (hydroxypropylcellulose) (HPC) 100 % of control | dose: 6.25 mg/kg/injection, schedule: Q01DX009 (ip), vehicle: Klucel (hydroxypropylcellulose) (HPC) 105 % of control | dose: 9.37 mg/kg/injection, schedule: Q04DX003 (ip), vehicle: Klucel (hydroxypropylcellulose) (HPC) 122 % of control | dose: 12.5 mg/kg/injection, schedule: Q01DX009 (ip), vehicle: Klucel (hydroxypropylcellulose) (HPC) 110 % of control | dose: 18.75 mg/kg/injection, schedule: Q04DX003 (ip), vehicle: Klucel (hydroxypropylcellulose) (HPC) 100 % of control | dose: 25.0 mg/kg/injection, schedule: Q01DX009 (ip), vehicle: Klucel (hydroxypropylcellulose) (HPC) 100 % of control

Cc1cc(=O)[nH]o1
inactive: [10] 108 % of control | [11] 103 % of control | [12] 103 % of control | [13] 113 % of control

CCCCCCCCCCCCCCCC[N+]1(C)CCN(SN2CC[N+](C)(CCCCCCCCCCCCCCCC)CC2)CC1
inactive: [14] 100 % of control | [1] 103 % of control | [3] 104 % of control | [6] 104 % of control

Cc1c(N)cccc1N
inactive: [15] 96 % of control | [16] 123 % of control

O=C1C=C(Cl)C(=O)C2=C1CCCC2
inactive: dose: 0.39 mg/kg/injection, schedule: Q04DX002 (ip), vehicle: saline 92 % of control | dose: 0.78 mg/kg/injection, schedule: Q04DX002 (ip), vehicle: saline 97 % of control | dose: 1.56 mg/kg/injection, schedule: Q04DX002 (ip), vehicle: saline with Tween-80 96 % of control | dose: 1.56 mg/kg/injection, schedule: Q04DX002 (ip), vehicle: saline 101 % of control

C/C(=N/N=C(N)N)c1ccc(NC(=O)Nc2ccc(/C(C)=N/N=C(N)N)cc2)cc1
active: dose: 66.0 mg/kg/injection, schedule: Q04DX003 (ip), vehicle: saline with Tween-80 154 % of control | [2] 150 % of control | dose: 150.0 mg/kg/injection, schedule: Q04DX003 (ip), vehicle: saline with Tween-80 159 % of control
inactive: [11] 90 % of control

Cc1ccc(N=Cc2ccccc2)cc1
inactive: dose: 100.0 mg/kg/injection, schedule: Q01DX009 (ip), vehicle: Klucel (hydroxypropylcellulose) (HPC) 95 % of control | dose: 100.0 mg/kg/injection, schedule: Q04DX003 (ip), vehicle: Klucel (hydroxypropylcellulose) (HPC) 100 % of control | dose: 200.0 mg/kg/injection, schedule: Q01DX009 (ip), vehicle: Klucel (hydroxypropylcellulose) (HPC) 100 % of control | dose: 200.0 mg/kg/injection, schedule: Q04DX003 (ip), vehicle: Klucel (hydroxypropylcellulose) (HPC) 108 % of control | dose: 400.0 mg/kg/injection, schedule: Q01DX009 (ip), vehicle: Klucel (hydroxypropylcellulose) (HPC) 90 % of control | dose: 400.0 mg/kg/injection, schedule: Q04DX003 (ip), vehicle: Klucel (hydroxypropylcellulose) (HPC) 108 % of control

NN=C(c1ccccc1)c1ccccc1
inactive: dose: 20.93 mg/kg/injection, schedule: Q01DX009 (ip), vehicle: Klucel (hydroxypropylcellulose) (HPC) 86 % of control | dose: 31.25 mg/kg/injection, schedule: Q04DX003 (ip), vehicle: Klucel (hydroxypropylcellulose) (HPC) 90 % of control and 104 % of control | dose: 41.87 mg/kg/injection, schedule: Q01DX009 (ip), vehicle: Klucel (hydroxypropylcellulose) (HPC) 95 % of control | dose: 62.5 mg/kg/injection, schedule: Q04DX003 (ip), vehicle: Klucel (hydroxypropylcellulose) (HPC) 90 % of control | dose: 125.0 mg/kg/injection, schedule: Q04DX003 (ip), vehicle: Klucel (hydroxypropylcellulose) (HPC) 90 % of control | dose: 190.0 mg/kg/injection, schedule: Q04DX003 (ip), vehicle: Klucel (hydroxypropylcellulose) (HPC) 86 % of control

C#CCSC(=N)N
inactive: dose: 12.5 mg/kg/injection, schedule: Q01DX009 (ip), vehicle: saline 100 % of control | dose: 33.0 mg/kg/injection, schedule: Q01DX009 (ip), vehicle: saline 109 % of control and 118 % of control | dose: 37.5 mg/kg/injection, schedule: Q04DX003 (ip), vehicle: saline 109 % of control | [14] 100 % of control and 115 % of control | dose: 75.0 mg/kg/injection, schedule: Q04DX003 (ip), vehicle: saline 109 % of control

Cc1ncc([N+](=O)[O-])n1CCN=[N+]=[N-]
inactive: [2] 104 % of control | [5] 123 % of control

COC(=O)C(NC=O)C(=O)OC
inactive: [1] 100 % of control | [3] 100 % of control | [4] 114 % of control | [6] 90 % of control | [7] 100 % of control | [9] 90 % of control

COc1cccc2c1C(=O)c1c(O)c3c(c(O)c1C2=O)C[C@@](O)(C(O)O)C[C@@H]3OC1CC(N)C(O)C(C)O1 (some centres not stated)
active: dose: 4.0 mg/kg/injection, schedule: Q01DX009 (ip), vehicle: water 169 % of control
inactive: dose: 8.0 mg/kg/injection, schedule: Q01DX009 (ip), vehicle: water 87 % of control | dose: 16.0 mg/kg/injection, schedule: Q01DX009 (ip), vehicle: water 87 % of control

O=S(=O)(CCBr)CCBr
inactive: [10] 100 % of control | [11] 104 % of control | [2] 100 % of control | [5] 100 % of control

Nc1nc2c(ncn2C2OC(CO)C(O)C2O)c(=O)[nH]1 (configuration not stated)
active: [2] 157 % of control

CC[N+](CC)(CC)CCCCCCCC[N+](CC)(CC)CC
inactive: dose: 0.25 mg/kg/injection, schedule: Q01DX009 (ip), vehicle: water 115 % of control | dose: 0.5 mg/kg/injection, schedule: Q01DX009 (ip), vehicle: water 92 % of control | dose: 0.5 mg/kg/injection, schedule: Q04DX003 (ip), vehicle: water 100 % of control | dose: 0.78 mg/kg/injection, schedule: Q04DX003 (ip), vehicle: water 112 % of control | dose: 1.0 mg/kg/injection, schedule: Q01DX009 (ip), vehicle: water 105 % of control and 106 % of control | dose: 1.0 mg/kg/injection, schedule: Q04DX003 (ip), vehicle: water 88 % of control | dose: 1.56 mg/kg/injection, schedule: Q04DX003 (ip), vehicle: water 112 % of control | dose: 2.0 mg/kg/injection, schedule: Q01DX009 (ip), vehicle: water 106 % of control | dose: 3.12 mg/kg/injection, schedule: Q04DX003 (ip), vehicle: water 112 % of control

O=C(O)c1ccc(C2CC2)cc1
inactive: [11] 95 % of control | [12] 90 % of control | [13] 90 % of control

CC(=O)OCC(OC(C)=O)c1cc(/C=N/N(C(C)=O)c2ccccc2)nn1-c1ccccc1 (configuration not stated)
inactive: [16] 101 % of control | [10] 98 % of control | [11] 96 % of control

O=C(CN1CC1)NCCCCCCCCCNC(=O)CN1CC1
active: dose: 18.75 mg/kg/injection, schedule: Q04DX003 (ip), vehicle: saline sonified 218 % of control | dose: 37.5 mg/kg/injection, schedule: Q04DX003 (ip), vehicle: saline sonified 172 % of control
inactive: dose: 8.0 mg/kg/injection, schedule: Q04DX003 (ip), vehicle: saline 122 % of control | dose: 12.0 mg/kg/injection, schedule: Q04DX003 (ip), vehicle: saline 122 % of control | dose: 18.0 mg/kg/injection, schedule: Q04DX003 (ip), vehicle: saline 122 % of control

CC(C)=NN1C(=O)c2ccccc2C1=O
inactive: [16] 101 % of control | [10] 101 % of control | [11] 100 % of control

O=C(CBr)CC(=O)Nc1ccccc1
inactive: [15] 100 % of control

CCOCCN1C=C/C(=C/C=C/c2cc[n+](CCOCC)c3ccccc23)c2ccccc21
inactive: dose: 0.22 mg/kg/injection, schedule: Q01DX009 (ip), vehicle: Klucel (hydroxypropylcellulose) (HPC) 100 % of control | dose: 0.45 mg/kg/injection, schedule: Q01DX009 (ip), vehicle: Klucel (hydroxypropylcellulose) (HPC) 100 % of control | dose: 0.9 mg/kg/injection, schedule: Q01DX009 (ip), vehicle: Klucel (hydroxypropylcellulose) (HPC) 105 % of control

COc1ccc2c(c1)C(C)(C)Oc1cc3oc(C(=O)O)cc(=O)c3cc1-2
inactive: [2] 104 % of control | [5] 101 % of control | [8] 104 % of control
